Measured values reported in US9034876B2, “Treatment of chronic inflammation with a 1,2,4-triazolo [1,5a] pyridine derivative” (Cephalon, Inc., priority 2010, dated 2015).

Tested on: phospho-STAT3
Experiment: CAIA model, paw phospho-STAT3 (Luminex bead assay)
Assay type: in vivo, female DBA/1 mice
Details: Dex 1.5 mg/kg i.p. three times a week (day 6-8)
Experimental: DBA/1 female mice were injected i.v. with purified anti-collagen type II antibodies, then given 25 μg of LPS i.p. three days later to induce arthritis by day 5. Mice that met the arthritis criteria score of 1 per paw were entered into the study. Compound A was provided orally, b.i.d., for all doses tested; Dex was provided at 1.5 mg/kg three times a week, i.p.; and vehicle (PEG400+1% DMSO) was provided orally.
The graphed data was generated using Luminex® bead kits, concentration in units per ml per 3 mg of total protein as determined by the BSA assay. The graphed data represents mean±SEM, statistics were performed using 2-way ANOVA analysis.
To investigate the effect of Compound A on levels of phosphorylated STATs and cytokines in the paws of treated mice, a method was developed whereby synovial fluid and cellular joint extracts could be obtained from the paws and ankles of diseased animals for analysis using multiplex bead arrays [32]. […] Consequently, multiplex analysis was used as the primary method of measuring phosphorylated STATs for all experiments described herein.
Briefly, the front (including carpus) and back (including tarsus) right paws were collected and frozen in dry-ice cooled isopentane and stored at −80° C. until use. The paws were cut to 2 mm×2 mm segments and kept on dry-ice in round bottom polypropylene tubes. Seven hundred microliters tissue extraction buffer containing protease inhibitor cocktail (Calbiochem, San Diego, Calif.) and Halt phosphatase inhibitor cocktail (Thermo Scientific, Rockford, Ill.) or Roche phosphatase inhibitor cocktail (Roche, Indianapolis, Ind.) in tissue extraction reagent I (Invitrogen, Carlesbad, Calif.) were added to each sample. Samples were homogenized frozen using a PT 10-35 Polytron homogenizer. After homogenization, samples were centrifuged at 4° C. for 2000×g for 10 minutes and supernatants re-centrifuged at 4° C. at maximum speed, 14,000×g, for 15 minutes. Supernatants were carefully removed to avoid picking up the top layer of lipids/adipose debris. Protein concentration was measured using a BCA protein assay (Pierce, Rockford, Ill.) and adjusted to 3 mg/ml. A minimum of 25 μl of this extraction was used in the above described protocol using the mouse cytokine 10-plex bead kit (Invitrogen, Carlsbad, Calif.) or phosphorylated STAT1, 3, 5a/b, 3-plex kit (Invitrogen, Carlsbad, Calif.).

Question: C[C@@H]1C[C@H]2[C@@H]3CCC4=CC(=O)C=C[C@]4(C)[C@@]3(F)[C@@H](O)C[C@]2(C)[C@@]1(O)C(=O)CO [Dex, Dexamethasone, reference compound] was tested. Which “time post treatment initiation at which the pSTAT3 reduction was reached” value did it give?
Answer: 48 hours
